Literature values, collected in patent publication US20210299202A1, “FORMULATION OF C[…]” (CARDINAL ADVISORY LIMITED, priority 2018, published 2021).

Legend:
[1] = oral ingestion
[2] = smoked, pulmonary absorption

CCCCCc1cc(O)c2c(c1)OC(C)(C)[C@@H]1CCC(C)=C[C@@H]21 [THC, delta-9-tetrahydrocannabinol]
time to peak plasma concentration [1]: 2 to 6 h | time to peak plasma THC concentration [2]: 6 to 10 min
